# Experimental data as given in patent US20070112057A1, “Polymorphic forms of tegaserod maleate” (priority 2005, published 2007).
# What was measured:
# [1] = Water absorption (hygroscopicity) test under 80% relative humidity; format: physicochemical; conditions: room temperature, 37 days
# [2] = Weight loss measured by TGA; format: physicochemical; conditions: range of about 25° C. to about 200° C.
# Protocol: Form Z has a weight loss of about 0.1% by weight at the range of about 25° C. to about 200° C., as measured by TGA.
# [3] = cited from earlier work
hygroscopicity (water absorption) [1],weight loss as measured by TGA [2],SMILES,solubility in ethanol ([3]; ethanol),solubility in water ([3]; water)
non hygroscopic,about 0.1 % by weight,"CCCCCNC(=N)N/N=C/c1c[nH]c2ccc(OC)cc12.O=C(O)/C=C\C(=O)O [Form Z, tegaserod maleate]",–,–
–,–,"CCCCCNC(=N)N/N=C/c1c[nH]c2ccc(OC)cc12.O=C(O)/C=C\C(=O)O [Tegaserod maleate, 3-(5-methoxy-1H-indole-3-ylmethylene)-N-pentylcarbazimidamide hydrogen maleate]",slightly soluble,very slightly soluble
